Tested on: Mycobacterium tuberculosis
Assay: Antimycobacterial activity against Mycobacterium tuberculosis H37Rv after 6 days by luciferase reporter gene assay
Format: functional, organism-based
Conditions: 144 h

Compound | IC50 | IC90 | IC99
FC(F)(F)c1ccc(Cl)c(N=NNc2cc(C(F)(F)F)ccc2Cl)c1 | 97.5 µM | > 100 µM | > 100 µM
FC(F)(F)c1cc(Cl)ccc1/N=N/Nc1ccc(Cl)cc1C(F)(F)F | 93 µM | > 100 µM | > 100 µM
COc1ccc(/C=C/C(=O)N(/N=N/c2cc(C(F)(F)F)ccc2Cl)c2cc(C(F)(F)F)ccc2Cl)c(OC)c1 | 72.3 µM | > 100 µM | > 100 µM
COc1ccc(/C=C/C(=O)N(/N=N/c2ccc(Cl)c(C(F)(F)F)c2)c2ccc(Cl)c(C(F)(F)F)c2)c(OC)c1 | 52 µM | 80.8 µM | 84.4 µM
COc1cc(/C=C/C(=O)N(/N=N/c2ccc(Cl)c(C(F)(F)F)c2)c2ccc(Cl)c(C(F)(F)F)c2)cc(OC)c1 | 71.3 µM | > 100 µM | > 100 µM
Fc1ccc(C(F)(F)F)cc1/N=N/Nc1cc(C(F)(F)F)ccc1F | 58.9 µM | > 100 µM | > 100 µM
N#Cc1c(F)cccc1/N=N/Nc1cccc(F)c1C#N | 62.3 µM | > 100 µM | > 100 µM
Fc1ccc(/N=N/Nc2ccc(F)cc2C(F)(F)F)c(C(F)(F)F)c1 | 85.5 µM | > 100 µM | > 100 µM
N#Cc1cc(/N=N/Nc2ccc(F)c(C#N)c2)ccc1F | > 100 µM | > 100 µM | > 100 µM
Clc1ccc(/N=N/Nc2ccc(Cl)cc2Cl)c(Cl)c1 | > 100 µM | > 100 µM | > 100 µM
COc1ccc(/C=C/C(=O)N(/N=N/c2ccc(Cl)cc2C(F)(F)F)c2ccc(Cl)cc2C(F)(F)F)c(OC)c1 | 83.1 µM | > 100 µM | > 100 µM
NNC(=O)c1ccncc1 [ISONIAZID] | 0.04 µM | 0.11 µM | 0.13 µM
